“And” between values parts separate entries of the source, which are not always exact repeats. Identical values can stand only once. ± gives the uncertainty stated by the source.

Regarding `C[NH+](CCO)CCO.O=C[O-]`, the viscosity runs as follows: (293.15 K, 101 kPa) 708.5 ± 27 mPa·s; (298.15 K, 101 kPa) 491.4 ± 17 mPa·s; (303.15 K, 101 kPa) 350 ± 11 mPa·s; (313.15 K, 101 kPa) 190 ± 5 mPa·s; (323.15 K, 101 kPa) 124.5 ± 2.9 mPa·s.
As for `CC1OC(C)OC(C)O1` (stereo not given), for the setting “293.15 K, 101.3 kPa”, the viscosity was determined as 1.224 ± 0.023 mPa·s.
As for `CCCBr`, the viscosity by setting is: (293.15 K, 101 kPa) 0.531 ± 0.011 mPa·s; (303.15 K, 101 kPa) 0.486 ± 0.011 mPa·s; (308.15 K, 101 kPa) 0.436 ± 0.0038 mPa·s; (313.15 K, 101 kPa) 0.448 ± 0.01 mPa·s; (323.15 K, 101 kPa) 0.415 ± 0.009 mPa·s.
`COCCOCCOCCOC` displayed a viscosity (298.15 K, 101 kPa) of 1.979 ± 0.06 mPa·s; a viscosity (298.15 K, 101.33 kPa) of 1.95 ± 0.015 mPa·s; a viscosity (308.15 K, 101 kPa) of 1.607 ± 0.05 mPa·s.
As to `NCCN`, the viscosity by setting is: (293.15 K, 101 kPa) 1.52 ± 0.03 mPa·s and 1.62 ± 0.12 mPa·s and 1.54 ± 0.03 mPa·s; (298.15 K, 101 kPa) 1.37 ± 0.03 mPa·s and 1.39 ± 0.03 mPa·s and 1.26 ± 0.034 mPa·s; (303.15 K, 101 kPa) 1.16 ± 0.03 mPa·s and 1.18 ± 0.03 mPa·s and 1.299 ± 0.01 mPa·s (2×); (303.15 K, 101.3 kPa) 1.29 ± 0.13 mPa·s; (303.15 K, 101.33 kPa) 1.299 ± 0.01 mPa·s; (308.15 K, 101.3 kPa) 1.167 ± 0.12 mPa·s. Also, the viscosity reads like this: (308.15 K, 101.33 kPa) 1.191 ± 0.01 mPa·s; (313.15 K, 100 kPa) 0.7611 ± 0.0066 mPa·s; (313.15 K, 101.3 kPa) 1.06 ± 0.11 mPa·s; (313.15 K, 101.33 kPa) 1.08 ± 0.009 mPa·s; (318.15 K, 101.3 kPa) 0.967 ± 0.097 mPa·s; (318.15 K, 101.33 kPa) 0.986 ± 0.008 mPa·s. For the same molecule, the viscosity was 0.737 ± 0.02 mPa·s and 0.9042 ± 0.0074 mPa·s and 0.904 ± 0.007 mPa·s (323.15 K, 101 kPa); 0.904 ± 0.007 mPa·s (323.15 K, 101.33 kPa).
As for `CCCCOC(=O)c1ccccc1`, the viscosity runs as follows: (293.15 K, 101.33 kPa) 2.835 ± 0.016 mPa·s; (298.15 K, 101 kPa) 2.691 ± 0.085 mPa·s; (303.15 K, 101.33 kPa) 2.189 ± 0.013 mPa·s; (308.15 K, 101 kPa) 2.208 ± 0.069 mPa·s; (313.15 K, 101.33 kPa) 1.73 ± 0.01 mPa·s; (318.15 K, 101 kPa) 1.819 ± 0.057 mPa·s. Besides, under “323.15 K, 101.33 kPa”, the viscosity stood at 1.388 ± 0.009 mPa·s.
In the case of `CCNCC`, the viscosity reads like this: (293.15 K, 100 kPa) 0.32 ± 0.03 mPa·s and 0.32 ± 0.01 mPa·s; (293.15 K, 101.33 kPa) 0.32 ± 0.009 mPa·s; (298.15 K, 101 kPa) 0.29 ± 0.003 mPa·s and 0.265 ± 0.002 mPa·s; (303.15 K, 101.33 kPa) 0.288 ± 0.008 mPa·s; (308.15 K, 101 kPa) 0.2466 ± 0.01 mPa·s; (308.15 K, 101.33 kPa) 0.274 ± 0.007 mPa·s. Further, the viscosity is, setting by setting: (313.15 K, 100 kPa) 0.26 ± 0.02 mPa·s and 0.26 ± 0.01 mPa·s; (318.15 K, 100 kPa) 0.248 ± 0.007 mPa·s; (323.15 K, 100 kPa) 0.237 ± 0.019 mPa·s and 0.237 ± 0.006 mPa·s.
In turn, `CCCCCCCC(=O)[O-].c1c[nH+]c[nH]1` yielded a viscosity (293.15 K, 101.3 kPa) of 88.48 ± 4.6 mPa·s; a viscosity (298.15 K, 101.3 kPa) of 71.27 ± 2.4 mPa·s; a viscosity (303.15 K, 101.3 kPa) of 56.48 ± 0.89 mPa·s; a viscosity (308.15 K, 101.3 kPa) of 45.3 ± 1.1 mPa·s; a viscosity (313.15 K, 101.3 kPa) of 36.92 ± 0.87 mPa·s; a viscosity (318.15 K, 101.3 kPa) of 30.56 ± 0.72 mPa·s. The molecule further yielded a viscosity (323.15 K, 101.3 kPa) of 25.33 ± 0.61 mPa·s.
As to `CCCC(=O)OC`, the viscosity reads like this: (298.15 K, 101 kPa) 0.546 ± 0.015 mPa·s; (323.15 K, 101 kPa) 0.374 ± 0.01 mPa·s.
Turning to `CCCC`, the viscosity runs as follows: (293.15 K, 101 kPa) 0.17 ± 0.01 mPa·s; (293.15 K, 101.33 kPa) 0.17 ± 0.0034 mPa·s; (313.15 K, 101 kPa) 0.143 ± 0.003 mPa·s; (313.15 K, 101.33 kPa) 0.143 ± 0.0029 mPa·s.
The molecule `ClCc1ccccc1` came in with a viscosity (298.15 K, 101 kPa) of 1.377 ± 0.033 mPa·s and a viscosity (303.15 K, 101 kPa) of 1.112 ± 0.01 mPa·s.
Take `CCOC(=O)CCCBr`: the viscosity (303.15 K, 101 kPa) amounted to 1.826 ± 0.011 mPa·s.

These data come from the CheMixHub viscosity set.
